Measured values taken from paper PMC9516332 (Frontiers in Oncology, 2022).
Where two headings read alike, the source gives them in different places.

Tested on: 134 cancer cell lines
Experiment: Cell viability assay (ATPlite, 72 hours), IC50 on cancer cell line panel

Compound: O=C(c1ccc(F)c(F)c1Nc1ccc(I)cc1F)N1CC(O)([C@@H]2CCCCN2)C1 [cobimetinib]
- IC50 (HEC-6, read-out: IC50 in cell proliferation assay, HEC-6 cell line (EGFR p.A289V)): 0.164 µM
- IC50 (Homo sapiens, 769-P, read-out: IC50 in cell proliferation assay, cell line 769-P): 0.423 µM
- IC50 (Homo sapiens, 786-0, read-out: IC50 in cell proliferation assay, cell line 786-O): 0.205 µM
- IC50 (Homo sapiens, A 172, read-out: IC50 in cell proliferation assay, cell line A-172): 0.218 µM
- IC50 (Homo sapiens, A204, read-out: IC50 in cell proliferation assay, cell line A-204): 0.9 µM
- IC50 (Homo sapiens, A498, read-out: IC50 in cell proliferation assay, cell line A-498): 3.91 µM
- IC50 (Homo sapiens, A549, read-out: IC50 in cell proliferation assay, cell line A-549): 0.255 µM
- IC50 (Homo sapiens, A704, read-out: IC50 in cell proliferation assay, cell line A-704): > 10 µM
- IC50 (Homo sapiens, A-375, read-out: IC50 in cell proliferation assay, cell line A-375 (BRAF p.V600E)): 0.013 µM
- IC50 (Homo sapiens, A-427, read-out: IC50 in cell proliferation assay, cell line A-427): 0.072 µM
- IC50 (Homo sapiens, ACHN, read-out: IC50 in cell proliferation assay, cell line ACHN): 0.104 µM
- IC50 (Homo sapiens, AN3-CA, read-out: IC50 in cell proliferation assay, cell line AN3-CA (FGFR2 p.N549K)): 0.558 µM
- IC50 (Homo sapiens, ASPC1, read-out: IC50 in cell proliferation assay, cell line AsPC-1): 0.061 µM
- IC50 (Homo sapiens, AU565, read-out: IC50 in cell proliferation assay, cell line AU565 (ERBB2 amplification)): > 10 µM
- IC50 (Homo sapiens, BT-20, read-out: IC50 in cell proliferation assay, cell line BT-20): > 10 µM
- IC50 (Homo sapiens, BT-474, read-out: IC50 in cell proliferation assay, cell line BT-474 (ERBB2 amplification)): 5.99 µM
- IC50 (Homo sapiens, BT-549, read-out: IC50 in cell proliferation assay, cell line BT-549): 5.71 µM
- IC50 (Homo sapiens, BXPC-3, read-out: IC50 in cell proliferation assay, cell line BxPC-3): 0.01 µM
- IC50 (Homo sapiens, C-33-A, read-out: IC50 in cell proliferation assay, cell line C-33 A): 0.043 µM
- IC50 (Homo sapiens, CAL-27, read-out: IC50 in cell proliferation assay, cell line CAL-27): 0.063 µM
- IC50 (Homo sapiens, CCF-STTG1, read-out: IC50 in cell proliferation assay, cell line CCF-STTG1): > 10 µM
- IC50 (Homo sapiens, CCRF-CEM, read-out: IC50 in cell proliferation assay, cell line CCRF-CEM): 8.48 µM
- IC50 (Homo sapiens, COLO 205, read-out: IC50 in cell proliferation assay, cell line COLO 205 (BRAF p.V600E)): 0.01 µM
- IC50 (Homo sapiens, COLO-829, read-out: IC50 in cell proliferation assay, cell line COLO 829 (BRAF p.V600E)): 0.028 µM
- IC50 (Homo sapiens, DLD-1, read-out: IC50 in cell proliferation assay, cell line DLD-1): 0.724 µM
- IC50 (Homo sapiens, DU-4475, read-out: IC50 in cell proliferation assay, cell line DU4475 (BRAF p.V600E)): 0.017 µM
- IC50 (Homo sapiens, Daoy, read-out: IC50 in cell proliferation assay, cell line Daoy): > 10 µM
- IC50 (Homo sapiens, DoTc2-4510, read-out: IC50 in cell proliferation assay, cell line DoTc2 4510): 0.042 µM
- IC50 (Homo sapiens, EOL1, read-out: IC50 in cell proliferation assay, cell line EoL-1 (FIP1L1-PDGFRA)): 0.087 µM
- IC50 (Homo sapiens, FaDu, read-out: IC50 in cell proliferation assay, cell line FaDu): 0.146 µM
- IC50 (Homo sapiens, G-361, read-out: IC50 in cell proliferation assay, cell line G-361 (BRAF p.V600E)): 0.011 µM
- IC50 (Homo sapiens, HCC827, read-out: IC50 in cell proliferation assay, cell line HCC827 (EGFR exon19del)): 0.321 µM
- IC50 (Homo sapiens, HCC4006, read-out: IC50 in cell proliferation assay, cell line HCC4006 (EGFR exon19del)): 1.28 µM
- IC50 (Homo sapiens, HCT-15, read-out: IC50 in cell proliferation assay, cell line HCT 15): 3.58 µM
- IC50 (Homo sapiens, HCT-116, read-out: IC50 in cell proliferation assay, cell line HCT 116): 0.106 µM
- IC50 (Homo sapiens, HEC-1, read-out: IC50 in cell proliferation assay, HEC-1 cell line): 0.368 µM
- IC50 (Homo sapiens, HEC-1B, read-out: IC50 in cell proliferation assay, HEC-1-B cell line (EGFR p.A864V)): 0.013 µM
- IC50 (Homo sapiens, HL-60, read-out: IC50 in cell proliferation assay, HL-60 cell line): 0.019 µM
- IC50 (Homo sapiens, HT, read-out: IC50 in cell proliferation assay, HT cell line): > 10 µM
- IC50 (Homo sapiens, HT-1080, read-out: IC50 in cell proliferation assay, HT-1080 cell line): 0.068 µM
- IC50 (Homo sapiens, Hs746T, read-out: IC50 in cell proliferation assay, Hs 746.T cell line (MET exon14skip + amplification)): 0.53 µM
- IC50 (Homo sapiens, Hs-578T, read-out: IC50 in cell proliferation assay, Hs 578T cell line): 2.22 µM
- IC50 (Homo sapiens, HuTu80, read-out: IC50 in cell proliferation assay, HuTu 80 cell line): 0.319 µM
- IC50 (Homo sapiens, J82, read-out: IC50 in cell proliferation assay, J82 cell line): 0.085 µM
- IC50 (Homo sapiens, Jurkat E6.1, read-out: IC50 in cell proliferation assay, Jurkat E6.1 cell line): > 10 µM
- IC50 (Homo sapiens, K562, read-out: IC50 in cell proliferation assay, K-562 cell line): 0.073 µM
- IC50 (Homo sapiens, KATO III, read-out: IC50 in cell proliferation assay, KATO III cell line (FGFR2 amplification)): 0.291 µM
- IC50 (Homo sapiens, KG-1, read-out: IC50 in cell proliferation assay, KG-1 cell line (FGFR1OP2-FGFR1)): 0.026 µM
- IC50 (Homo sapiens, KLE, read-out: IC50 in cell proliferation assay, KLE cell line): > 10 µM
- IC50 (Homo sapiens, KMS-11, read-out: IC50 in cell proliferation assay, KMS-11 cell line (FGFR3 p.Y373C)): 4.12 µM
- IC50 (Homo sapiens, KU812, read-out: IC50 in cell proliferation assay, Ku812 cell line): 0.064 µM
- IC50 (Homo sapiens, Kasumi 1, read-out: IC50 in cell proliferation assay, Kasumi-1 cell line (KIT p.N822K)): 0.062 µM
- IC50 (Homo sapiens, LC-2-ad, read-out: IC50 in cell proliferation assay, LC-2/ad cell line (CCDC6-RET)): 1.19 µM
- IC50 (Homo sapiens, LNCaP-Clone-FGC, read-out: IC50 in cell proliferation assay, LNCaP clone FGC cell line): 9.64 µM
- IC50 (Homo sapiens, LS174T, read-out: IC50 in cell proliferation assay, LS174T cell line): 0.025 µM
- IC50 (Homo sapiens, LS-411N, read-out: IC50 in cell proliferation assay, LS411N cell line (BRAF p.V600E)): 0.021 µM
- IC50 (Homo sapiens, LoVo, read-out: IC50 in cell proliferation assay, LoVo cell line): 0.118 µM
- IC50 (Homo sapiens, MCF7, read-out: IC50 in cell proliferation assay, MCF-7 cell line): 8.55 µM
- IC50 (Homo sapiens, MDA-MB-231, read-out: IC50 in cell proliferation assay, MDA-MB-231 cell line): 0.192 µM
- IC50 (Homo sapiens, MDA-MB-453, read-out: IC50 in cell proliferation assay, MDA-MB-453 cell line): 0.501 µM
- IC50 (Homo sapiens, MDA-MB-468, read-out: IC50 in cell proliferation assay, MDA-MB-468 cell line): 0.248 µM
- IC50 (Homo sapiens, MG-63, read-out: IC50 in cell proliferation assay, MG-63 cell line): 0.421 µM
- IC50 (Homo sapiens, MIA PaCa-2, read-out: IC50 in cell proliferation assay, MIA PaCa-2 cell line): 0.068 µM
- IC50 (Homo sapiens, MKN-45, read-out: IC50 in cell proliferation assay, MKN45 cell line (MET amplification)): 0.294 µM
- IC50 (Homo sapiens, MOLM-13, read-out: IC50 in cell proliferation assay, MOLM-13 cell line (FLT3 ITD)): 0.172 µM
- IC50 (Homo sapiens, MOLT-4, read-out: IC50 in cell proliferation assay, MOLT-4 cell line): > 10 µM
- IC50 (Homo sapiens, MV4-11, read-out: IC50 in cell proliferation assay, MV4-11 cell line (FLT3 ITD)): 0.111 µM
